From a melting point compilation (Tetko et al.; mined from patent text by program, amines drawn as free bases though some values may be those of a salt)

| Structure (SMILES) | melting point [°C] |
| --- | --- |
| CS(=O)(=O)Oc1ccc2c(=O)c(C(=O)O)cn3c2c1CCC3 | 270 to 275 |
| CCCCCCCC(=O)OC1CC(=O)NC1=O (configuration not stated) | 60.5 to 61 |
| CC(=O)C1=C(Nc2ccc(C3=NNC(=O)CC3)cc2)CC(C)(C)CC1=O | 212 to 214 |
| O=S(=O)(Oc1ccc2c(OS(=O)(=O)c3ccc(O)cc3)c3cc(OS(=O)(=O)c4ccc(O)cc4)ccc3cc2c1)c1ccc(O)cc1 | 192 to 194 |
| Cc1ccc(CSc2nc(N)nc3nc[nH]c23)cc1 | 240 to 242 |
| CC(C)Cc1cc(OCC(=O)N(C)C)c2[nH]nc(Nc3nccs3)c2c1 | 96 to 98 |
| CNc1nc(Nc2ccc(Cl)cc2F)ncc1N1CCNC1=O | 249 |
| COc1ccc(Cl)cc1Cn1nc(-c2ccc(C(F)(F)F)cc2)oc1=O | 144 to 145 |
| Cc1ccc(-c2nc3ccc(CN4CCN(C)CC4)cc3[nH]2)cc1C#Cc1ccc(NC(C)C)nn1 | 129 to 130 |
| CS(=O)(=O)c1ccc(C(=O)C2C(=O)CCC(S(C)(=O)=O)C2=O)c(Cl)c1 (configuration not stated) | 175 to 180 |
| CCC(C)n1cc(Cl)nc(N2CCc3cc(OC)cc(C)c32)c1=O (configuration not stated) | 176 to 178 |
| COc1nccc(-c2c(-c3ccc(F)cc3)ncn2[C@H]2CC[C@H](O)CC2)n1 | 188 to 190 |
| CSc1nccc(-c2cccc(C(F)(F)F)c2)n1 | 89 to 90 |
| Cc1ccc(C2c3c(C)c(N4CCN(c5ccc(C)cc5)CC4)c(C)c(C)c3OC2(C)C)cc1 (configuration not stated) | 157 to 158 |
| COc1ccc(C(=O)Nc2ccc(C(C)(C)CNC(=O)c3nc4ccc(F)cc4[nH]3)cc2)cc1OC | 222 to 224 |
| CC(=O)N1CCc2ccc(S(=O)(=O)C(F)(F)F)cc2C1 | 199 to 200 |
| CN1Cc2c(C(=O)OC(C)(C)C)ncn2-c2ccccc2C1=S | 207 to 208 |
| CCCC(=O)Nc1ccc(OC)c(C(C)=O)c1 | 113 |
| CC(C)OCCOc1c(-c2ccc(S(C)(=O)=O)cc2)cnn(-c2ccc(F)c(F)c2)c1=O | 105 to 107 |
| COC(=O)c1ccc(C(=O)O)cc1C | 134 to 136 |
| CC1=Nc2c(nc(N)[nH]c2=O)NC1C (configuration not stated) | > 300 |
| Cc1cc(C2=NOC(c3cc(C(F)(F)F)cc(C(F)(F)F)c3)(C(F)(F)F)C2)ccc1Br (configuration not stated) | 108 to 110 |
| CC1(C)C2CC[C@]1(C)C(=O)C(C(=O)Nc1ccc(Cl)c(Cl)c1)C2=O (some centres not stated) | 88 to 90 |
| CN(C)S(=O)(=O)c1cc2cc(C(=O)O)oc2c(Cl)c1Cl | 242 to 245 |
| Cc1cc(-c2ccc(S(N)(=O)=O)cc2)n(-c2ccc(C)c(C)c2)c1 | 118 to 120 |
| O=C(C=Cc1c(Cl)ccc(Cl)c1Cl)c1ccc(OC2CCCCO2)cc1 (configuration not stated) | 101 to 104 |

| Structure (SMILES) | melting point [°C] |
| --- | --- |
| CCc1[nH]c2ccc(OC)cc2c1C=O | 211 to 212 |
| CCOC(=O)c1cn(Cc2cnsn2)c2c(F)c(F)c(F)cc2c1=O | 200 to 203 |
| c1ccc2c(c1)Cc1ccccc1N1CCNCC21 (configuration not stated) | 128 to 130 |
| C[C@H]1Oc2cccc(F)c2N(C)C(=O)[C@H]1NC(=O)OC(C)(C)C | 130 to 138 |
| COc1ccc2onc(CC(N)=NO)c2c1 | 180 to 183 |
| CCCc1c(C(=O)C2CCCC2)c2ccc(C(N)=O)cc2n1Cc1cc2c(cc1Cl)OCO2 | 236 to 237 |
| CCCN(CCC)C1Cc2c(C(C)=O)ccc3c2C(CN3)C1 (single isomer, unassigned; (+)) | 76 to 77 |
| COCCCNc1nc(N)c(Cl)c(Cl)n1 | 114 |
| CC1(C)COC(c2ccc(CC34CCCCN3C(=O)N(c3cc(Cl)cc(Cl)c3)C4=O)cc2)=N1 (configuration not stated) | 87.2 |
| COCOC(C(Cc1ccccc1)NC(=O)[C@@H](NC(=O)OCc1ccccc1)C(C)C)C(Cc1ccccc1)NC(=O)[C@@H](NC(=O)OCc1ccccc1)C(C)C (some centres not stated) | 197 to 198 |
| CC(C)(C)OC(=O)NCCCCC1C(=O)OC(C)(C)OC1=O | 112 to 113 |
| CS(=O)(=O)Nc1ccc(N2CCN(c3cc(N)ccn3)CC2)cc1 | 225 to 227 |
| CC(C)N1Cc2cc(O)ccc2N(CCN2CC=C(c3c[nH]c4cc(F)ccc34)CC2)S1(=O)=O | 80 to 82 |
| CC(=O)N1CCc2cc(-c3ccc4c(c3)CC[C@H]3N(C)C(=O)CC[C@]43C)ccc21 | 197 to 200 |
| O=S1(=O)N=CN(CCF)c2cc(Cl)c(Cl)cc21 | 233 to 234 |
| CCOc1nc(NCc2ccncc2)nc(Nc2ccc3[nH]c(=O)[nH]c3c2)n1 | 210 to 212 |
| CC(=O)c1ccc2c(c1)N(C(=O)OC(C)(C)C)CCC2 | 125 to 127 |
| COc1cc(NC(=O)N(c2ccc(N(C)C)cc2)C2CCCCCC2)c(OC(=O)[C@H](C)NC(=O)OCc2ccccc2)c(C(C)(C)C)c1 | 126 |
| CC(C)Cc1nc2c(N)nc3c(c2n1CC(C)C)CCCC3 | 160 to 161 |
| CCCn1c(=O)c2[nH]c(/C=C/c3ccc4c(c3)OCO4)nc2n(CCC)c1=O | > 270 |
| CN1C[C@H](CN2CCN(C(c3ccccc3)c3ccccc3)CC2)C[C@@H]2c3cccc4[nH]c(Br)c(c34)C[C@H]21 | 255 |
| Cc1ccc(Br)c(C)c1C#N | 60 |
| O=C(Nc1cccc(OC(F)(F)F)c1)Nc1ccccc1CCO | 160 to 161 |
| CCc1cc(CCCOc2c(C)cc(-c3noc(C(F)(F)F)n3)cc2C)on1 | 157 to 158 |
| COC(=O)c1cc(=O)c2oc3ccc(Cl)cc3c(=O)c2[nH]1 | 300 to 305 |
| COC(Cc1nsc(N)n1)OC | 62 to 66.5 |

More lines, now with the values ahead:

| melting point [°C] | Structure (SMILES) |
| --- | --- |
| 194 to 195 | CNc1cccc2c1nc(-c1c(F)cccc1F)n2Cc1c(F)cccc1F |
| 61 to 66 | COC(=O)N(Cc1ccccc1)[C@H]1CC[C@H](c2ccc(O)cc2)CC1 |
| 172 to 175 | O=C(O)COc1ccc(C(=O)c2ccc([N+](=O)[O-])cc2)c(Cl)c1Cl |
| 157 to 158 | O=C(O)CCC(c1cc(F)ccc1F)S(=O)(=O)c1ccc(Cl)cc1 (configuration not stated) |
| 258 to 259 | O=C1N(c2c(Cl)cccc2Cl)Cc2cnc(NC3CCCCC3)nc2N1c1ccccc1 |
| 201 to 203 | Clc1ccc(C2(Cn3cncn3)OCOC2c2ccc(Cl)cc2Cl)cc1 (configuration not stated) |
| 180 to 182 | CCCCCCCCCCOc1cc2oc3c(C(=O)O)cccc3c(=O)c2cc1CCC(=O)O |
| 232 to 234 | CCCC(=O)Nc1ccc(C2=NNC(=O)NC2C)cc1 (configuration not stated) |
| 150 | Cc1ccc(S(=O)(=O)N2[C@@H](c3nnn(C)n3)CC[C@H]2c2ccc(F)cc2)cc1 (racemic) |
| 193 to 194 | CC(=O)c1ccc(S(=O)(=O)NCCc2ccc(CC(=O)O)cc2)cc1 |
| 140 to 142 | CNS(=O)(=O)N1C[C@H](SC(c2ccccc2)(c2ccccc2)c2ccccc2)C[C@H]1COCc1ccccc1 |
| > 250 | O=C(O)c1[nH]c2cc(Cl)cc(Cl)c2c1C=C1CC(=O)N(c2ccccc2)C1=O |
| 149 to 150 | COc1cc(Nc2ncc(N)c(-c3ccccc3)n2)cc(OC)c1OC |
| 246 | CC1(C)CC(n2cncc2C(=O)O)c2ccccc2O1 (configuration not stated) |
| 190 to 191 | O=C(NCc1ccccn1)Nc1cc(N2CC(c3ccccc3)OC2=O)ccn1 (configuration not stated) |
| 104 to 106 | CCCN1CCC(n2nc(-c3c(-c4ccccc4)nn4ccccc34)ccc2=O)CC1 |
| 159 to 160 | O=C(c1ccccc1)n1c(=O)c(C(F)(F)F)cn(C2CC(O)C(COCc3ccc(Cl)cc3)O2)c1=O (configuration not stated) |
| 65 to 66 | CC(C)c1nccn1N=Cc1ccccc1 |
| 205 | O=C(C=Cc1ccc(COc2ccccc2)cc1)NC(Cc1ccccc1)C(=O)O (configuration not stated) |
| 328 to 335 | O=S1(=O)CCN(c2nc3c(-c4nc(C5CC5)no4)ncn3c3ccccc23)CC1 |
| 129 to 132 | CC(=NO)c1ccc(OCC(O)(Cn2cncn2)C(C)(C)C)cc1 (configuration not stated) |
| 150 | COC(=O)c1c(C)nc2cccc(C)c2c1NCc1ccc(Br)cc1 |
| 68 to 68.5 | OCC1CN(Cc2ccccc2)CC=C1c1ccc(F)cc1 (single isomer, unassigned; (+)) |

| melting point [°C] | Structure (SMILES) |
| --- | --- |
| 102 to 104 | BrCCCCn1c2ccccc2c2ccccc21 |
| 120 to 122 | O=C(O)c1nc(N2CCCC2)ccc1OCc1ccccc1 |
| 162 to 164 | COCc1cc(-c2nc(-c3cnc(N)c(C)c3)no2)ccc1-c1ccccc1F |
| 155 to 159 | O=c1c2cc(SC(F)(F)F)ccc2ccn2cccc12 |
| 135 to 137 | COc1cc(OC)nc(-n2c(SC)nc3ccccc32)n1 |
| 254 to 256 | CC1CC(=O)NN=C1c1ccc(-n2ccc(=O)cc2)cc1 (configuration not stated) |
| 164 | O=C(NC(=O)c1ccccc1Cl)Nc1ccc(Cl)c(C(F)(F)F)c1 |
| 305 to 306 | Oc1ccc(-c2cc3ccc(O)cc3s2)cc1 |
| > 250 | Fc1ccc(-c2ccc3[nH]c4c(ccc5cc[nH]c54)c3c2)cc1 |
| 154 to 155 | COCCOCCn1cc(C(=O)NCc2ccc(Cl)cc2)c(=O)c2cc(CSC)ccc21 |
| 69.5 to 71 | CCCCCCCCCCCCOC(=O)Cc1nc(-c2ccc(Cl)cc2)oc1-c1ccco1 |
| 153 | CC(c1ccccc1)N1CC2Cc3cc4ccccc4n3CC2C1 (configuration not stated) |
| 155 to 156 | Brc1cccc(-c2cc(-c3cccc(Br)c3)on2)c1 |
| 132 to 134 | CS(=O)(=O)On1nnc2ccccc2c1=O |
| 103 to 105 | Cc1oc(-c2ccccc2)nc1COc1ccc(C=O)cc1 |
| 44 to 46 | CCCCCCCCCCCCc1ccccc1C(SCCC(=O)O)C(=O)O (configuration not stated) |
| 77 to 79 | O=C(O)C1Cc2ccccc2CN1C(=O)c1ccc(Cl)cc1 (configuration not stated) |
| 210 to 230 | O=C(O)/C=C\C(=O)Nc1ccc2c(=O)n3c(nc2c1)C(=Cc1ccccc1)CC3 |
| 121 to 122 | CCCc1nn(-c2ccc(C(F)(F)F)cn2)cc1CCCOc1ccc(CC(=O)O)cc1OC |
| 129 to 130 | CC(=O)Nc1cc(N2CCN(C(=O)OC(C)(C)C)CC2)ccc1S(=O)(=O)c1ccccc1 |
| 128 to 129 | CCc1cccc(C(O)CCc2ccccc2)c1NC(=O)CC1c2ccccc2Oc2ccccc21 (configuration not stated) |
| 75 to 78 | C[C@@H](CO)Oc1ccc(-c2ccccc2)cc1 |
